Experimental data reported in patent US8466309B2, “Amino acid derivatives, method for preparing same, and therapeutic use thereof” (priority 2008, dated 2013).

Tests used:
Type in all cases: in vivo
male OF1 mice [1] = assay: Von Frey test: mechanical allodynia after partial ligature of the sciatic nerve; details: oral 50 mg/kg, maximum at 60 min, day 14 post-surgery
Experimental: (§1) This test was described in detail by A. B. Malmberg and A. I. Basbaum, Partial sciatic nerve injury in the mouse as a model of neuropathic pain: behavioural and neuroanatomical correlates. Pain, (1998) 76, 215-222.
(§2) It was conducted on male OF1 mice (Charles River), of 18-20 g, n=39, by partial ligature of the sciatic nerve on the ipsilateral side. The animals are tested in the period (3-26 days) after the operation.
Measurement of hyperalgesia was carried out according to the method described by K. Hargreaves et al., A new sensitive method for measuring thermal nociception in cutaneous hyperalgesia, Pain, (1988), 32, 77-88, by using as a heat source, the “Plantar test” apparatus (Bioseb, France). The intensity of the nociceptive stimulus is calibrated to 8-10 s with an automatic stopping threshold (cut-off time) at 20 s. The average of the withdrawals of the paw induced by the heat, was measured on the ipsilateral paws (damaged nerve) and contralateral paws (intact nerve). […] Mechanical allodynia is measured as described by S. R. Chaplan et al., Quantitative assessment of tactile allodynia in the rat paw, J. Neurosci. […] The mechanical antiallodynic effect is measured by the method of Von Frey with filaments of increasing size exerting also increasing pressure.
The effect of the compound of Example 10 on mechanical allodynia is measured by the Von Frey test. […]

male OF1 mice [2] = assay: Plantar test: thermal hyperalgesia after partial ligature of the sciatic nerve
Experimental: as §1, §2
Measurement of hyperalgesia was carried out according to the method described by K. Hargreaves et al., A new sensitive method for measuring thermal nociception in cutaneous hyperalgesia, Pain, (1988), 32, 77-88, by using as a heat source, the “Plantar test” apparatus (Bioseb, France). The intensity of the nociceptive stimulus is calibrated to 8-10 s with an automatic stopping threshold (cut-off time) at 20 s. The average of the withdrawals of the paw induced by the heat, was measured on the ipsilateral paws (damaged nerve) and contralateral paws (intact nerve). This measurement was carried out 3 times on each paw. Mechanical allodynia is measured as described by S. R. Chaplan et al., Quantitative assessment of tactile allodynia in the rat paw, J. Neurosci. Meth. (1994), 53, 55-63. The ipsilateral (lesion) and contralateral (control) paws are tested as earlier. The mechanical antiallodynic effect is measured by the method of Von Frey with filaments of increasing size exerting also increasing pressure.
FIG. 3: Neuropathic pain model: partial ligature of the sciatic nerve (mice). Response generated by per os administration of the carrier (□) or of the compound of Example 10 (▪): removal of the paw (in second) versus time (in minutes).
Carrier: EtOH/0.5% methylcellulose (1.5/98.5)
Tests carried out at day 14 post-surgery; ipsilateral paw
Abscissa: time in minutes, ordinate: withdrawal of the paw in seconds
Plantar test: evaluation of thermal hyperalgia
Average of the contralateral paws: compound 10 at 90 min=8.3 s.

male OF1 mice [3] = assay: Formalin test (phase I), number of paw lickings after oral administration; details: 120 minutes after administration (FIG. 2)
Source text: A/Formalin Test (Phase I) […]
The animals (male OF1 mice) come from the Charles River breeder (France) and weigh 25-35 g at the beginning of the experiment. The weight of each mouse is taken into account for administering the product.
The test is based on the procedure described by S. HUNSKAAR et al., Formalin test in mice, a useful technique for evaluating mild analgesics, J. Neurosci. Methods […], 14, 69-75.
The mice (n=8) are individually placed in a transparent enclosure (50×25 cm) and become accustomed to this environment for 20 minutes. After this period, 20 μL of formalin (5% HCHO) in solution in saline solution (H2O, 0.9% NaCl), are injected subcutaneously on the plantar face of the right paw of the animal. A 26 syringe connected to a microsyringe is used. Each mouse is then immediately placed back into the test enclosure and pain (nociceptive) responses are measured for 5 minutes (early phase). Only the lickings of the paw are counted. […]
The analgesic action of the product is measured by the decrease in the number of lickings of the lesioned paw, as compared with the number of lickings of the animal which has received the carrier alone. […]

CSCCC(CSSCC(Cc1ccccc1)C(=O)NCC(=O)O)NC(=O)OC(C)OC(=O)C(C)C (stereo not drawn) [Example 10, 1-{1-[2-(carboxymethyl-carbamoyl)-3-phenyl-propyl-disulfanylmethyl]-3-methylsulfanyl-propylcarbamoyl-oxy}-ethyl isobutyric acid ester]
anti-allodynic effect, maximum, as % of the maximum response (non-treated control) (male OF1 mice [1]): 75% | withdrawal of the paw, average of the contralateral paws (male OF1 mice [2]; 50 mg/kg, at 90 min, intact nerve side): 8.3 s | maximum effect on thermal hyperalgesia (male OF1 mice [2]; p.o. 50 mg/kg, at 80 min): 100% | withdrawal of the paw (ipsilateral paw) (male OF1 mice [2]; p.o. 50 mg/kg, at 80 min, plantar test, day 14 post-surgery): 8.2 ± 0.9 s | decrease of thermal hyperalgesia induced by partial ligature of the sciatic nerve (male OF1 mice [2]; p.o. 50 mg/kg, period from 45 to 150 min, day 14 post-surgery, ipsilateral paw): 65-100%

NH2—CH(CH2CH2SCH3)—CH2—S—S—CH2—CH(CH2C6H5)—CONH—CH2—CONH—CO—CH(CH3)—O—CO—OCH2CH3 [Compound 15]
analgesic activity at 120 minutes (male OF1 mice [3]): no longer has any activity
